This note sets out measurements from paper PMC1382195 (The Journal of General Physiology, 2005).

Experiment [1] concerns the target T1, cystic fibrosis transmembrane conductance regulator (ΔR-CFTR) (Homo sapiens, UniProt P13569, DEL634-836). The experiment can be described thus: excised inside-out patch-clamp. It is filed as biochemical. On the technique in general: Patch clamp records ionic current or voltage across a cell membrane.
For experiment [2], the target named is T1, cystic fibrosis transmembrane conductance regulator (ΔR-CFTR). The experiment can be described thus: excised inside-out patch-clamp, single-channel Po versus [ATP]. It is filed as biochemical.

T1 sequence (P13569 1-633, stated change not applied): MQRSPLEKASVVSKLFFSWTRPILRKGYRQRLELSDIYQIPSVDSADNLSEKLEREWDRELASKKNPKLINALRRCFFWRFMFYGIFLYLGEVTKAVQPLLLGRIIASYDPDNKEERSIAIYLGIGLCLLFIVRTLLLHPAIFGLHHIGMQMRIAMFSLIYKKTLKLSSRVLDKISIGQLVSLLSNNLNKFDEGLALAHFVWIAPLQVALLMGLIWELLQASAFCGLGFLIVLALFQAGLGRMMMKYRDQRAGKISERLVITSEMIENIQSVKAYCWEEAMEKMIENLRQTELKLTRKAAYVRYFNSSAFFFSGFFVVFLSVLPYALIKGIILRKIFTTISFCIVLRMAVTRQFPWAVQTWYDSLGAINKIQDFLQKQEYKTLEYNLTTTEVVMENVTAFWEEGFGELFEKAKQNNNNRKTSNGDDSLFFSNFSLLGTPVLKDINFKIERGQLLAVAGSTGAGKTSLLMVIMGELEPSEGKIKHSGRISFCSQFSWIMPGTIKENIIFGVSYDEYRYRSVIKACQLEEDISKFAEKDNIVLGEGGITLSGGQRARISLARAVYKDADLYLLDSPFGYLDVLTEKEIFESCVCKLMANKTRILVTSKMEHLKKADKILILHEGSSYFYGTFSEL
T1 sequence (P13569 837-1480, stated change not applied): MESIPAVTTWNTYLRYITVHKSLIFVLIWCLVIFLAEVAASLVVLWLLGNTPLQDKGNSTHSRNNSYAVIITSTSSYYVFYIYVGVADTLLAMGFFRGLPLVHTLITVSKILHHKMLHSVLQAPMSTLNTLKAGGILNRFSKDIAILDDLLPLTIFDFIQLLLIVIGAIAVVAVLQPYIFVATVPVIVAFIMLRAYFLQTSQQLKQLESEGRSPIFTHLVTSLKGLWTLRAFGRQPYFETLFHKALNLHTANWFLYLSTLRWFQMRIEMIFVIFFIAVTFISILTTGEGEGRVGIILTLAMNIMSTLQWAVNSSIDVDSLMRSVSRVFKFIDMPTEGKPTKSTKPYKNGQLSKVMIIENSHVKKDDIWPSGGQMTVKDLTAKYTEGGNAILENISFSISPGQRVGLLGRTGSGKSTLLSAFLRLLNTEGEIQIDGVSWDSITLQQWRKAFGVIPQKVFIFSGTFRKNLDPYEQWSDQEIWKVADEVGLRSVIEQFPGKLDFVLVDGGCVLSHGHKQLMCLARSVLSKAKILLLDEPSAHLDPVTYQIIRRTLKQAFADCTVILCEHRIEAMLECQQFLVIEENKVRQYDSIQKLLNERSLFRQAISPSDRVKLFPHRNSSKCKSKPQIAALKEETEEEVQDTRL

As to `Nc1ncnc2c1ncn2[C@@H]1O[C@H](COP(=O)(O)OP(=O)(O)O)[C@@H](O)[C@H]1O` [ADP], the Ki in experiment [1] was found to be 26.3 ± 5.1 µM.
As to `Nc1ncnc2c1ncn2[C@@H]1O[C@H](COP(=O)(O)OP(=O)(O)OP(=O)(O)O)[C@@H](O)[C@H]1O` [ATP], in experiment [2], the EC50 worked out at 89 ± 25 µM.

As a reminder, the Ki is the equilibrium dissociation constant of an inhibitor or competing ligand from its target. Usually EC50 stands for the concentration needed to bring the measured effect to its halfway point. Lower therefore signals higher potency in that assay.
